Active and inactive are the calls of the source. The calls are words filed in the database; no cut-off is given here.
How the values were obtained:
[1] = target: GABA-A receptor; anion channel (Homo sapiens) (UniProt P14867+P47870+P18507+P28472+P48169+Q99928+Q9UN88+P34903+O00591+O14764+Q8N1C3+P18505+P78334+P47869+P31644+Q16445); test: GABA-induced 36Cl- influx in hamster cerebral cortex synaptoneurosomes at 0.1 uM; type: functional, tissue-based; details: Cricetulus griseus
[2] = tested on: Cricetinae gen. sp.; test: Compound was tested for reduction of 3-mercaptopropionic acid induced seizures in hamsters at 20 mg/kg; Active; type: functional, organism-based; design: dose 20 mg/kg; details: Cricetulus griseus

Activity [1]: Active
Compound: CC(=O)[C@H]1CCC2C3CC4OC[C@@]5(CC[C@@H](O)C=C45)C3CC[C@@]21C (some centres not stated)
Activity [2]: Active

Source: ChEMBL document CHEMBL1145885, “Synthesis and GABA(A) receptor activity of a 6,19-oxido analogue of pregnanolone” (Bioorg Med Chem Lett, 2003)
